# Target: T1, EHMT2 (Homo sapiens, UniProt Q96KQ7)
# T1 construct: host or cells: MDA-MB-231
# T1 sequence (Q96KQ7 1-1210): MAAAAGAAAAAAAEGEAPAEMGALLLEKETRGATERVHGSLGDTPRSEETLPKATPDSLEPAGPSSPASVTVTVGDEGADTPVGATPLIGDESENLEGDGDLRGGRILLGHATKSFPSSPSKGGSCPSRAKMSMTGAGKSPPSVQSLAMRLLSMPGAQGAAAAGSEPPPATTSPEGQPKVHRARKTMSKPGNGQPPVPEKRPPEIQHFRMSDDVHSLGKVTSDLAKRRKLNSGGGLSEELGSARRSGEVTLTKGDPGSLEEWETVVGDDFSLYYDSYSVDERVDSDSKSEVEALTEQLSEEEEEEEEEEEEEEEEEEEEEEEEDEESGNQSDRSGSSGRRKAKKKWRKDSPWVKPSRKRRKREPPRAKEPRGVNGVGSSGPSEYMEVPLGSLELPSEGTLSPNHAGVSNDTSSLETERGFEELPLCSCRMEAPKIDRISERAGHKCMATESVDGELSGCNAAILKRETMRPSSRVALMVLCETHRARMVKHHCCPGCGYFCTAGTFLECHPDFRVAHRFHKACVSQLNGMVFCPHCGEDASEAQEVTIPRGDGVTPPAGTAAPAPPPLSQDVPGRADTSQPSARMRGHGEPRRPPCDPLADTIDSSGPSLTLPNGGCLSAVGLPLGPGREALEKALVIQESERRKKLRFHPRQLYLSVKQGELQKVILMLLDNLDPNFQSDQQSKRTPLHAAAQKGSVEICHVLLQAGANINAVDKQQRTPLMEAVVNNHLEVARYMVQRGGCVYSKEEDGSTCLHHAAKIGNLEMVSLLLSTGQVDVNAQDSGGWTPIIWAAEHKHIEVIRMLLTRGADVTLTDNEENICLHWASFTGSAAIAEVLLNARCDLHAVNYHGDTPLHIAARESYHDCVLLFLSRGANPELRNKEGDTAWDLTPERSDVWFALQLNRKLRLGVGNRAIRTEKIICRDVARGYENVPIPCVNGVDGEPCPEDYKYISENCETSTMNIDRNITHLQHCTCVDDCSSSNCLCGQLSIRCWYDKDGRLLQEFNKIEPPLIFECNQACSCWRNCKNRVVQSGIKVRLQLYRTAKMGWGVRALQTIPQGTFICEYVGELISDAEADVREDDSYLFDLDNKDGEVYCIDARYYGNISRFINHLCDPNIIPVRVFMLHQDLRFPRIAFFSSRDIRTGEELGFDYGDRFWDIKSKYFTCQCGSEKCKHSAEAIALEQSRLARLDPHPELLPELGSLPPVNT
# Test: MDA-MB-231 H3K9me2 in-cell Western assay (EHMT2 ICW)
# Assay type: cell-based
# Conditions: H3K9me2 in-cell Western, MDA-MB-231 cells; read-out: EHMT2 ICW (IC50 μM)
# Summary of the method: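 Steps: compound added to plate, MDA-MB-231 cells plated in RPMI with 10% FBS, incubation for 48 h at 37 °C, fixation, overnight anti-H3K9me2 staining at 4 °C, and donkey anti-mouse 800CW with DRAQ5 counterstain. IC50 values come from percent inhibition fitted with a four-parameter model.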
row,Structure (SMILES),IC50 [µM]
1,"CNc1ccnc(NC2CCCNC2)n1 (stereo not drawn) [Compound 541, N^4-methyl-N^2-(piperidin-3-yl)pyrimidine-2,4-diamine]",> 10
2,"CNc1ccnc(NC2CCNCC2)n1 [Compound 542, N^4-methyl-N^2-(piperidin-4-yl)pyrimidine-2,4-diamine]",> 10
3,CCCC1(Nc2nccc(NC)n2)CCCNC1 (stereo not drawn) [Compound 544],> 10
4,CCCC1(Nc2nccc(NC)n2)CCNCC1 [Compound 545],> 10
5,"CNc1ccnc(NC2(C)CCCNC2)n1 (stereo not drawn) [Compound 546, N^4-methyl-N^2-(3-methylpiperidin-3-yl)pyrimidine-2,4-diamine]",> 10
6,"CNc1ccnc(NC2(C)CCNCC2)n1 [Compound 547, N^4-methyl-N^2-(4-methylpiperidin-4-yl)pyrimidine-2,4-diamine]",> 10
7,"CNc1ccnc(N[C@@H]2CC[C@H](N)C2)n1 [Compound 548, N^2-((1R,3S)-3-aminocyclopentyl)-N^4-methylpyrimidine-2,4-diamine]",> 10
8,"CCCCN1CCCC(C)(Nc2nccc(NC)n2)C1 (stereo not drawn) [Compound 549, N^2-(1-butyl-3-methylpiperidin-3-yl)-N^4-methylpyrimidine-2,4-diamine]",> 10
9,"CCCCN1CCC(C)(Nc2nccc(NC)n2)CC1 [Compound 550, N^2-(1-butyl-4-methylpiperidin-4-yl)-N^4-methylpyrimidine-2,4-diamine]",> 10
10,c1nc(NC2CCNCC2)ncc1OCCCN1CCCC1 [Compound 552],> 10
11,CN1CCC(COc2cnc(NCC3CCOCC3)nc2)C1 (stereo not drawn) [Compound 553],> 10
12,CN1CCC(COc2ccc(NC3CCNCC3)nc2)C1 (stereo not drawn) [Compound 554],> 10
13,CN1CCC(COc2cnc(NC3CCNCC3)nc2)C1 (stereo not drawn) [Compound 555],> 10
14,c1nc(NC2CCNCC2)ncc1OCC1CCN(C2CC2)C1 (stereo not drawn) [Compound 556],> 10
15,c1nc(NC2CCOCC2)ncc1OCC1CCN(C2CC2)C1 (stereo not drawn) [Compound 557],> 10
16,CNc1cc(C)nc(Nc2ccc(OC)c(O)c2)n1 [Compound 561],> 10
17,CCN1CC(COc2cc(Nc3nccc4[nH]ccc34)ncc2OC)C1 [Compound 564],> 10
18,CCN1CC(COc2cc(Nc3cc(NC)ncc3F)ncc2OC)C1 [Compound 566],> 10

row,Structure (SMILES),IC50 [µM]
1,CCN1CC(COc2cc(Nc3cc(NC)nc(C)c3F)ncc2OC)C1 [Compound 567],> 10
2,COc1ccc(NC2CCNCC2)cc1OCCCN1CCCC1 [Compound 572],> 10
3,COc1ccc(NC2CCCNC2)cc1OCCCN1CCCC1 (stereo not drawn) [Compound 573],> 10
4,CNc1cc(C)nc(Nc2ccc(OC)c(OCCCN3CC4(CC4)C3)c2)n1 [Compound 574],> 10
5,CNc1cc(C)nc(Nc2ccc(OC)c(OCC3CN(C4CCCC4)C3)c2)n1 [Compound 577],> 10
6,COc1cc(NC2CCCNC2)ccc1OCCCN1CCCC1 (stereo not drawn) [Compound 578],> 10
7,COc1cc(NC2CCNCC2)ccc1OCCCN1CCCC1 [Compound 579],> 10
8,CNc1cc(C)nc(Nc2ccc(OC)c(OCC3CN(C4CCOC4)C3)c2)n1 (stereo not drawn) [Compound 580],> 10
9,COc1cnc(Nc2cccc3[nH]ncc23)cc1OCCCN1CCCC1 [Compound 581],> 10
10,COc1ccc(Nc2nccc3[nH]ncc23)cc1OCCCN1CCCC1 [Compound 582],> 10
11,COc1cnc(Nc2ccnc3[nH]ncc23)cc1OCCCN1CCCC1 [Compound 583],> 10
12,CCN1CC(COc2cc(Nc3cccc4nncn34)ncc2OC)C1 [Compound 584],> 10
13,COc1cnc(Nc2cccn3ccnc23)cc1OCCCN1CCCC1 [Compound 586],> 10
14,CC(C)N1CC(COc2cnc(NC3CCNCC3)nc2)C1 [Compound 588],> 10
15,COc1cnc(Nc2cccc3cncn23)cc1OCCCN1CCCC1 [Compound 589],> 10
16,COc1cnc(Nc2cc(C)nc3[nH]ncc23)cc1OCCCN1CCCC1 [Compound 596],> 10
17,C/C=C/C(=O)Nc1cc(OCCCN2CCCC2)c(OC)cn1 [Compound 597],> 10
18,C/C=C/C(=O)Nc1ccc(OC)c(OCCCN2CCCC2)c1 [Compound 598],> 10

# More lines, now with the values ahead:
row,IC50 [µM],Structure (SMILES)
1,> 10,"CNc1ccnc(Nc2cc(OCCCN3CCCC3)c3cn[nH]c3c2)n1 [Compound 538, N^4-methyl-N^2-(4-(3-(pyrrolidin-1-yl)propoxy)-1H-indazol-6-yl)pyrimidine-2,4-diamine]"
2,> 10,CNc1ccnc(Nc2cc(OCCCN3CCCC3)c3[nH]ncc3c2)n1 [Compound 539]
3,0.1 to 1,"CNc1cc(C)nc(Nc2ccc(OC)c(OCCCN(C)C3CCC3)c2)n1 [Compound 551, N^2-(3-(3-(cyclobutyl(methyl)amino)propoxy)-4-methoxyphenyl)-N^4,6-dimethylpyrimidine-2,4-diamine]"
4,0.1 to 1,CNc1cc(C)nc(Nc2cnc(OC)c(OC[C@H]3CCN(C4CC4)C3)c2)n1 [Compound 558]
5,0.1 to 1,CNc1cc(C)nc(Nc2ccc(OC)c(OCC3CN(C(C)C)C3)c2)n1 [Compound 559]
6,0.1 to 1,CCN1CC(C(O)Oc2cc(Nc3nc(C)cc(NC)n3)ccc2OC)C1 (stereo not drawn) [Compound 560]
7,1 to 10,CCN1CC(C(C#N)Oc2cc(Nc3nc(C)cc(NC)n3)ccc2OC)C1 (stereo not drawn) [Compound 562]
8,< 0.1,CNc1cc(C)nc(Nc2ccc(OC)c(OC[C@@H]3CCN(C4CCC4)C3)c2)n1 [Compound 563]
9,1 to 10,COc1cc(Nc2nc(C)cc3[nH]ncc23)ncc1OCCCN1CCCC1 [Compound 565]
10,0.1 to 1,CNc1cc(C)nc(Nc2ccc(OC)c(OC[C@@H]3CCN(C4(C)CC4)C3)c2)n1 [Compound 568]
11,0.1 to 1,CCN1CC(COc2cc(Nc3cc(NC)cc(C)n3)cnc2OC)C1 [Compound 569]
12,0.1 to 1,CCN1CC[C@@H](COc2cc(Nc3nc(C)cc(NC)n3)ccc2OC)C1 [Compound 571]
13,1 to 10,CNc1cc(C)nc(Nc2ccc(OC)c(OCC3CN(C(C)C)C3)c2)n1 [Compound 575]
14,0.1 to 1,CNc1cc(C)nc(Nc2ccc(OC)c(OCC3CN(C4CCC4)C3)c2)n1 [Compound 576]
15,1 to 10,COc1cnc(Nc2cccc3nccn23)cc1OCCCN1CCCC1 [Compound 585]
16,0.1 to 1,COc1cc2c(C3CCN(C)CC3)nc(N(C)C)nc2cc1OCCCN1CCCC1 [Compound 587]
17,0.1 to 1,COc1ccc(Nc2nc(C)cc(NCC3CCOCC3)n2)cc1OCCCN1CCCC1 [Compound 590]
18,0.1 to 1,COc1ncc(Nc2nc(C)cc(NCC3CCOCC3)n2)cc1OCCCN1CCCC1 [Compound 591]
19,0.1 to 1,COc1ncc(Nc2nc(C)cc(NCC3CCOCC3)n2)cc1OC[C@@H]1CCN(C(C)C)C1 [Compound 592]
20,0.1 to 1,COc1ncc(Nc2nc(C)cc(NC(C)C)n2)cc1OCCCN1CCCC1 [Compound 593]
21,0.1 to 1,COc1ncc(Nc2nc(C)cc(NCC3CCOCC3)n2)cc1OC[C@@H]1CCN(C2CCC2)C1 [Compound 594]
22,0.1 to 1,COc1ncc(Nc2nc(C)cc(NCC3CCOCC3)n2)cc1OC[C@@H]1CCN(C2CCC2)C1 [Compound 595]
23,0.1 to 1,CCN1CC[C@@H](COc2cc(Nc3nc(C)cc(NC)n3)cnc2OC)C1 [Compound 599]
24,< 0.1,CNc1cc(C)nc(Nc2ccc(OC)c(OC[C@@H]3CCNC3)c2)n1 [Compound 600]
25,0.1 to 1,CCc1cc(NC)nc(Nc2cnc(OC)c(OC[C@@H]3CCN(CC)C3)c2)n1 [Compound 601]
26,0.1 to 1,CCN1CC[C@@H](COc2cc(Nc3nc(C)cc(NC(C)C)n3)ccc2OC)C1 [Compound 602]
27,0.1 to 1,COc1ccc(Nc2nc(C)cc(NC(C)C)n2)cc1OCCCN1CCCC1 [Compound 603]

# Reference: patent US20210198277A1, “AMINE-SUBSTITUTED ARYL OR HETEROARYL COMPOUNDS” (Epizyme, Inc., priority 2016, published 2021)
